Reference: patent US9187464B2, “TRPV4 antagonists” (GlaxoSmithKline Intellectual Property (No. 2) Limited, priority 2011, dated 2015)

Biological target: T1, human TRPV4 (Homo sapiens, UniProt Q9HBA0)
T1 construct: expressed in transfected cells; host or cells: HEK-293-MSR-II cells transduced with 1% BacMam virus
Test: Ligand-gated assay (Fluo4 calcium, FLIPR; inhibition of agonist-induced activation)
Type: cell-based
Conditions: HEK-293-MSR-II cells transduced with BacMam human TRPV4; agonist at EC80
Method: TRP channel activation/opening results in an influx of divalent and monovalent cations including calcium. The resulting changes in intracellular calcium were monitored using a calcium selective fluorescent dye Fluo4 (MDS Analytical Technologies). Dye loaded cells were initially exposed to test compound to verify a lack of agonist activity. Cells were subsequently activated by addition of an agonist and inhibition of the agonist-induced activation was recorded. Human embryonic kidney 293 cells stably expressing the macrophage scavenger receptor class II (HEK-293-MSR-II) and transduced with 1% BacMam (J. P. Condreay, S. M. Witherspoon, W. C. Clay and T. A. Kost, Proc Natl Acad Sci 96 (1999), pp. 127-132) virus expressing the human TRPV4 gene were plated at 15000 cells/well in a volume of 50 μL in a 384 well poly-D lysine coated plate. Cells were incubated for 24 hours at 37 degrees and 5% CO2. Media was then aspirated using a Tecan Plate-washer and replaced with 20 μL of dye loading buffer: HBSS, 500 uM Brilliant Black (MDS Analytical Technologies), 2 uM Fluo-4. Dye loaded plates were then incubated in the dark at room temperature for 1-1.5 hours. 10 μL of test compound diluted in HBSS (HBSS with 1.5 mM Calcium Chloride, 1.5 mM Magnesium Chloride and 10 mM HEPES. pH 7.4), +0.01% Chaps was added to the plate, incubated for 10 min at room temperature in the dark and then 10 μL of agonist was added at a final concentration equal to the agonist EC80. Calcium release was measured using the FLIPRtetra (MDS Analytical Technologies) or FLIPR384 (MDS Analytical Technologies).
IC50 between 0.1-10 nM (+++), >10-50 nM (++), >50-500 nM (+).

T1 sequence (Q9HBA0 whole entry): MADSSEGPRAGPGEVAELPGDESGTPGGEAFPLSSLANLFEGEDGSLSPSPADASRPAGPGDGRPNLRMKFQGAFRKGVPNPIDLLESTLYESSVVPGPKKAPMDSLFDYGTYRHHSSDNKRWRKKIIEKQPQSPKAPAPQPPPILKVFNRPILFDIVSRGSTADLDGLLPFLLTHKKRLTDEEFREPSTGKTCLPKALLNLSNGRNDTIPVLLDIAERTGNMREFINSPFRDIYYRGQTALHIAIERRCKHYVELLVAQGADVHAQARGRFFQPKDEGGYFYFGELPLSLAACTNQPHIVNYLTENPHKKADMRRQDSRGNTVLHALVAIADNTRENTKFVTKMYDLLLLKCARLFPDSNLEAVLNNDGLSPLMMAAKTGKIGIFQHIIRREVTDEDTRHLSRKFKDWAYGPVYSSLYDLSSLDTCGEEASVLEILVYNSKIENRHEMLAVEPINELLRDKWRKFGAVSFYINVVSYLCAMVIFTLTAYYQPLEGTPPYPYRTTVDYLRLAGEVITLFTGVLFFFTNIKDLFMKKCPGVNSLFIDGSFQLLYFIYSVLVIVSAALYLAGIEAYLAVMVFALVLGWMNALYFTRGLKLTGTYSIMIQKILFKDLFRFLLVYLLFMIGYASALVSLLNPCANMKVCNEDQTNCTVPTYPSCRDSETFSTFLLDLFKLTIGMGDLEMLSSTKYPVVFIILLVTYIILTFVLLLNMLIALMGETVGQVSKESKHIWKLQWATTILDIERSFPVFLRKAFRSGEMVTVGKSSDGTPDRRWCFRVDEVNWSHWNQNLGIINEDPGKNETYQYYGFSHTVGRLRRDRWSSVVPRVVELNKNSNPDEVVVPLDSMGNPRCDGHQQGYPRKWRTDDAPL

IC50 | Structure (SMILES)
0.0001 to 0.01 µM | N#Cc1cc(F)cc(-n2cc(CN3CC4(CCC[C@H](Cn5cnc6ccc(C#N)cc65)C4)OC3=O)nn2)c1 (stereo in doubt) [Example 103, 1-[((5S,7S)-3-{[1-(3-cyano-5-fluorophenyl)-1H-1,2,3-triazol-4-yl]methyl}-2-oxo-1-oxa-3-azaspiro[4.5]dec-7-yl)methyl]-1H-benzimidazole-6-carbonitrile]
0.0001 to 0.01 µM | C[C@]1(Cn2cnc3ccc(C#N)cc32)CCCC2(CN(Cc3cc(F)ccn3)C(=O)O2)C1 (stereo in doubt) [Example 158, 1-(((5S,7S)-3-((4-fluoropyridin-2-yl)methyl)-7-methyl-2-oxo-1-oxa-3-azaspiro[4.5]decan-7-yl)methyl)-1H-benzo[d]imidazole-6-carbonitrile]
0.01 to 0.05 µM | CC(C)(C)c1cc(N2C[C@@]3(CCC[C@](C)(Cn4cnc5ccc(C#N)cc54)C3)OC2=O)on1 [Example 1, 1-({(5S,7S)-3-[3-(1,1-Dimethylethyl)-5-isoxazolyl]-7-methyl-2-oxo-1-oxa-3-azaspiro[4.5]dec-7-yl}methyl)-1H-benzimidazole-6-carbonitrile]
0.0001 to 0.01 µM | CC(C)(C)c1cc(N2C[C@@]3(CCC[C@](C)(Cn4cnc5ccc(C#N)cc54)C3)OC2=O)no1 [Example 3, 1-({(5S,7S)-3-[5-(1,1-Dimethylethyl)-3-isoxazolyl]-7-methyl-2-oxo-1-oxa-3-azaspiro[4.5]dec-7-yl}methyl)-1H-benzimidazole-6-carbonitrile]
0.0001 to 0.01 µM | C[C@]1(Cn2cnc3ccc(C#N)cc32)CCC[C@@]2(CN(Cc3ccccn3)C(=O)O2)C1 [Example 4, 1-{[(5S,7S)-7-Methyl-2-oxo-3-(2-pyridinylmethyl)-1-oxa-3-azaspiro[4.5]dec-7-yl]methyl}-1H-benzimidazole-6-carbonitrile]
0.0001 to 0.01 µM | C[C@]1(Cn2cnc3ccc(C#N)cc32)CCC[C@@]2(CN(Cc3cn(-c4ccccc4)nn3)C(=O)O2)C1 [Example 8, 1-({(5S,7S)-7-Methyl-2-oxo-3-[(1-phenyl-1H-1,2,3-triazol-4-yl)methyl]-1-oxa-3-azaspiro[4.5]dec-7-yl}methyl)-1H-benzimidazole-6-carbonitrile]
0.01 to 0.05 µM | C[C@]1(Cn2cnc3ccc(C#N)cc32)CCC[C@@]2(CN(c3ccc(C(F)(F)F)cn3)C(=O)O2)C1 [Example 11, 1-({(5S,7S)-7-Methyl-2-oxo-3-[5-(trifluoromethyl)-2-pyridinyl]-1-oxa-3-azaspiro[4.5]dec-7-yl}methyl)-1H-benzimidazole-6-carbonitrile]
0.0001 to 0.01 µM | COc1cc(C)c(N2C[C@@]3(CCC[C@](C)(Cn4cnc5ccc(C#N)cc54)C3)OC2=O)cn1 [Example 15, 1-(((5S,7S)-3-(6-Methoxy-4-methylpyridin-3-yl)-7-methyl-2-oxo-1-oxa-3-azasbiro[4.5]decan-7-yl)methyl)-1H-benzo[d]imidazole-6-carbonitrile]
0.01 to 0.05 µM | COc1cnc(N2C[C@@]3(CCC[C@](C)(Cn4cnc5ccc(C#N)cc54)C3)OC2=O)cn1 [Example 17, 1-(((7S)-3-(5-Methoxypyrazin-2-yl)-7-methyl-2-oxo-1-oxa-3-azaspiro[4.5]decan-7-yl)methyl)-1H-benzo[d]imidazole-6-carbonitrile]
0.0001 to 0.01 µM | CN(C)c1ccc(N2C[C@@]3(CCC[C@](C)(Cn4cnc5ccc(C#N)cc54)C3)OC2=O)cn1 [Example 19, 1-(((5S,7S)-3-(6-(Dimethylamino)pyridin-3-yl)-7-methyl-2-oxo-1-oxa-3-azaspiro[4.5]decan-7-yl)methyl)-1H-benzo[d]imidazole-6-carbonitrile]

Further lines, the compound ahead of its results:

Structure (SMILES) | IC50
C[C@]1(Cn2cnc3ccc(C#N)cc32)CCC[C@@]2(CN(Cc3csc4ncccc34)C(=O)O2)C1 (relative stereo) [Example 152, 1-{[(trans)-7-methyl-2-oxo-3-(thieno[2,3-b]pyridin-3-ylmethyl)-1-oxa-3-azaspiro[4.5]dec-7-yl]methyl}-1H-benzimidazole-6-carbonitrile] | 0.0001 to 0.01 µM
N#Cc1ccc2ccn(C[C@H]3CCC[C@]4(C3)CN(Cc3csc5ccc(Cl)cc35)C(=O)O4)c2c1 (stereo in doubt) [Example 59, 1-({3-[(5-chloro-1-benzothien-3-yl)methyl]-2-oxo-1-oxa-3-azaspiro[4.5]dec-7-yl}methyl)-1H-indole-6-carbonitrile] | 0.05 to 0.5 µM
N#Cc1ccc2nc(C(F)(F)F)n(C[C@H]3CCC[C@]4(C3)CN(Cc3csc5ccc(Cl)cc35)C(=O)O4)c2c1 (stereo in doubt) [Example 60, 1-({3-[(5-chloro-1-benzothien-3-yl)methyl]-2-oxo-1-oxa-3-azaspiro[4.5]dec-7-yl}methyl)-2-(trifluoromethyl)-1H-benzimidazole-6-carbonitrile] | 0.05 to 0.5 µM
N#Cc1ccc2ncn(C[C@H]3CCC[C@]4(C3)CN(Cc3csc5ccccc35)C(=O)O4)c2c1 (stereo in doubt) [Example 62, 1-{[3-(1-benzothien-3-ylmethyl)-2-oxo-1-oxa-3-azaspiro[4.5]dec-7-yl]methyl}-1H-benzimidazole-6-carbonitrile] | 0.01 to 0.05 µM
CCOc1ccc(CN2CC3(CCC[C@](C)(Cn4cnc5ccc(C#N)cc54)C3)OC2=O)nc1 (stereo in doubt) [Example 157, 1-(((5S,7S)-3-((5-ethoxypyridin-2-yl)methyl)-7-methyl-2-oxo-1-oxa-3-azaspiro[4.5]decan-7-yl)methyl)-1H-benzo[d]imidazole-6-carbonitrile] | 0.0001 to 0.01 µM
CC(C)(C#N)c1cc(N2C[C@@]3(CCC[C@](C)(Cn4cnc5ccc(C#N)cc54)C3)OC2=O)on1 [Example 2] | 0.0001 to 0.01 µM
CC(C)(CN1C[C@@]2(CCC[C@H](Cn3cnc4ccc(C#N)cc43)C2)OC1=O)c1nnc(-c2ccccc2)o1 [Example 5, 1-({(5S,7S)-3-[2-Methyl-2-(5-phenyl-1,3,4-oxadiazol-2-yl)propyl]-2-oxo-1-oxa-3-azaspiro[4.5]dec-7-yl}methyl)-1H-benzimidazole-6-carbonitrile] | 0.0001 to 0.01 µM
CCc1noc(C(C)(C)CN2C[C@@]3(CCC[C@H](Cn4cnc5ccc(C#N)cc54)C3)OC2=O)n1 [Example 6, 1-({(5S,7S)-3-[2-(3-Ethyl-1,2,4-oxadiazol-5-yl)-2-methylpropyl]-2-oxo-1-oxa-3-azaspiro[4.5]dec-7-yl}methyl)-1H-benzimidazole-6-carbonitrile] | 0.0001 to 0.01 µM
CC1(CN2C[C@@]3(CCC[C@H](Cn4cnc5ccc(C#N)cc54)C3)OC2=O)CCN(c2ncccn2)C1 (stereo partly drawn) [Example 7, 1-[((5S,7S)-3-{[3-Methyl-1-(2-pyrimidinyl)-3-pyrrolidinyl]methyl}-2-oxo-1-oxa-3-azaspiro[4.5]dec-7-yl)methyl]-1H-benzimidazole-6-carbonitrile] | 0.05 to 0.5 µM
N#Cc1ccc2ncn(C[C@H]3CCC[C@]4(C3)CN(Cc3cn(-c5cncc(C(F)(F)F)c5)nn3)C(=O)O4)c2c1 [Example 9, 1-{[(5S,7S)-2-Oxo-3-({1-[5-(trifluoromethyl)-3-pyridinyl]-1H-1,2,3-triazol-4-yl}methyl)-1-oxa-3-azaspiro[4.5]dec-7-yl]methyl}-1H-benzimidazole-6-carbonitrile] | 0.0001 to 0.01 µM
CC(C)(C)c1noc(N2C[C@@]3(CCC[C@](C)(Cn4cnc5ccc(C#N)cc54)C3)OC2=O)c1Cl [Example 10, 1-({(5S,7S)-3-[4-Chloro-3-(1,1-dimethylethyl)-5-isoxazolyl]-7-methyl-2-oxo-1-oxa-3-azaspiro[4.5]dec-7-yl}methyl)-1H-benzimidazole-6-carbonitrile] | 0.0001 to 0.01 µM
CCOc1ccc(N2C[C@@]3(CCC[C@](C)(Cn4cnc5ccc(C#N)cc54)C3)OC2=O)cn1 [Example 12, ′1-({(5S,7S)-3-[6-(Ethyloxy)-3-pyridinyl]-7-methyl-2-oxo-1-oxa-3-azaspiro[4.5]dec-7-yl}methyl)-1H-benzimidazole-6-carbonitrile] | 0.0001 to 0.01 µM
COc1ccc(N2C[C@@]3(CCC[C@](C)(Cn4cnc5ccc(C#N)cc54)C3)OC2=O)cn1 [Example 13] | 0.0001 to 0.01 µM
CCOc1cnc(N2C[C@@]3(CCC[C@](C)(Cn4cnc5ccc(C#N)cc54)C3)OC2=O)cn1 [Example 14, 1-(((5S,7S)-3-(5-Ethoxypyrazin-2-yl)-7-methyl-2-oxo-1-oxa-3-azaspiro[4.5]decan-7-yl)methyl)-1H-benzo[d]imidazole-6-carbonitrile] | 0.0001 to 0.01 µM
CCn1ncc(N2C[C@@]3(CCC[C@](C)(Cn4cnc5ccc(C#N)cc54)C3)OC2=O)c1C [Example 16, 1-(((5S,7S)-3-(1-Ethyl-5-methyl-1H-pyrazol-4-yl)-7-methyl-2-oxo-1-oxa-3-azaspiro[4.5]decan-7-yl)methyl)-1H-benzo[d]imidazole-6-carbonitrile] | 0.0001 to 0.01 µM
C[C@]1(Cn2cnc3ccc(C#N)cc32)CCC[C@@]2(CN(c3ccc(Cl)nc3)C(=O)O2)C1 [Example 18] | 0.01 to 0.05 µM
CC(C)(C)OC(=O)OCC(C)(C)c1cc(N2C[C@@]3(CCC[C@](C)(Cn4cnc5ccc(C#N)cc54)C3)OC2=O)on1 [Example 20, Tert-butyl (2-(5-((5S,7S)-7-((6-cyano-1H-benzo[d]imidazol-1-yl)methyl)-7-methyl-2-oxo-1-oxa-3-azaspiro[4.5]decan-3-yl)isoxazol-3-yl)-2-methylpropyl) carbonate] | 0.0001 to 0.01 µM
